Legend:
Aurora kinase A = target: T1, Aurora kinase A (Homo sapiens, UniProt O14965); test: Inhibition of hexahistidine tagged recombinant Aurora A expressed in Hi-5 cells assessed as ATP remaining after 2 hrs by bioluminescence
T1 sequence (O14965 whole entry): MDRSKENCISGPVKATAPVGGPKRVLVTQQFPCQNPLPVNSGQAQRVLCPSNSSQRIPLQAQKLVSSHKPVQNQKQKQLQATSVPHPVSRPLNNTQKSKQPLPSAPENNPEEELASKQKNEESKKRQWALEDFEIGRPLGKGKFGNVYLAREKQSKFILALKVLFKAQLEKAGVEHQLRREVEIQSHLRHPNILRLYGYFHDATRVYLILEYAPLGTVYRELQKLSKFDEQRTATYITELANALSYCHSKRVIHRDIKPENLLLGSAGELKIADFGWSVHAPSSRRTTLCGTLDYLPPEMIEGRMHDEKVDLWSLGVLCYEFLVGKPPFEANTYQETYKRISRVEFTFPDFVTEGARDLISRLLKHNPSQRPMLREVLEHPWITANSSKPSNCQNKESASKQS

Aurora kinase B = Aurora kinase B (Homo sapiens, UniProt Q96GD4); test: Inhibition of GST tagged recombinant Aurora B expressed in Hi-5 cells after 1 hr by TRF assay
Aurora kinase B, sequence (Q96GD4 whole entry): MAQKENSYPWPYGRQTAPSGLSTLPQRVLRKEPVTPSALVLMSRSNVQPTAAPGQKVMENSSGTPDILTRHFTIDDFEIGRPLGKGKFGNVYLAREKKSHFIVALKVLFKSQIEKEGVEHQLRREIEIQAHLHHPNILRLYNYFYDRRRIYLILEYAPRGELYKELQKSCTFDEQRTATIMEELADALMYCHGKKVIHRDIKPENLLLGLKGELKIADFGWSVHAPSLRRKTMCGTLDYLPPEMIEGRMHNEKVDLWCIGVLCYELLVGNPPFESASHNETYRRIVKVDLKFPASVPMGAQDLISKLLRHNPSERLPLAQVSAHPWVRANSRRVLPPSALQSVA

[1] = Selectivity ratio of IC50 for recombinant Aurora A to IC50 for recombinant Aurora B

Row | Structure (SMILES) | IC50 (Aurora kinase A) [nM] | IC50 (Aurora kinase B) [nM] | Ratio IC50 [1]
1 | Cc1cc2[nH]nc(/C=C/c3ccccc3)c2cc1NC(=O)Cc1cccs1 | 17 | 47 | 
2 | O=C(Cc1cccs1)Nc1cc2c(/C=C/c3ccccc3)n[nH]c2cc1N1CCCC1 | 91 | 110 | 0.8
3 | O=C(Cc1ccccc1)Nc1ccc2[nH]nc(CCc3ccccc3)c2c1 | 1700 |  | 
4 | O=C(Cc1ccccc1)Nc1ccc2[nH]nc(/C=C/c3ccccc3)c2c1 | 22 |  | 
5 | O=S(=O)(Cc1ccccc1)Nc1ccc2[nH]nc(/C=C/c3ccccc3)c2c1 | 35 | 31 | 1.1
6 | C(=C\c1n[nH]c2cc(N3CCCC3)c(-c3ccncc3)cc12)/c1ccccc1 | 160 | 46 | 3.5
7 | Cc1cc2[nH]nc(/C=C/c3cccc(CN4CCN(C)CC4)c3)c2cc1NC(=O)Cc1cccs1 | 79 | 130 | 0.6
8 | C(=C\c1n[nH]c2cc(N3CCCC3)c(NCc3ccccn3)cc12)/c1ccccc1 | 620 | 130 | 5
9 | CN1CCN(Cc2cccc(/C=C/c3n[nH]c4ccc(NC(=O)Cc5cccs5)cc34)c2)CC1 | 35 | 26 | 1.3
10 | COc1ccc(OC)c(CC(=O)Nc2cc3c(/C=C/c4ccccc4)n[nH]c3cc2C)c1 | 42 | 180 | 0.23
11 | Nc1cc2c(/C=C/c3ccccc3)n[nH]c2cc1N1CCCC1 | 200 | 81 | 2.5
12 | CN1CCN(c2cc3[nH]nc(/C=C/c4ccccc4)c3cc2NCc2ccccn2)CC1 | > 10000 | 810 | > 12
13 | Cc1cc2[nH]nc(C#Cc3ccccc3)c2cc1NC(=O)Cc1cccs1 | 240 | 110 | 
14 | O=C(Cc1ccccc1)Nc1ccc2[nH]nc(C3CC3c3ccccc3)c2c1 (centres undefined) | 640 | 1640 | 
15 | Cc1cc(N)cc(-c2ccc3[nH]nc(/C=C/c4cccc(CN5CCN(C)CC5)c4)c3c2C)c1 | 350 | 31 | 11.3
16 | CN1CCN(C(=O)Nc2cccc(/C=C/c3n[nH]c4cc(N5CCCC5)c(NS(C)(=O)=O)cc34)c2)CC1 | 140 | 62 | 2.3
17 | Cc1cc2[nH]nc(/C=C/c3cccc(NC(=O)N4CCN(C)CC4)c3)c2cc1NC(=O)Cc1cccs1 | 13 | 46 | 0.28
18 | Cc1c(C#N)ccc2[nH]nc(/C=C/c3cccc(CN4CCN(C)CC4)c3)c12 | 280 | 59 | 4.7
19 | O=[N+]([O-])c1cc2c(/C=C/c3ccccc3)n[nH]c2cc1N1CCCC1 | 240 | 110 | 2.2
20 | Cc1cc2[nH]nc(/C=C/c3ccccc3)c2cc1NC(=O)Cc1ccccc1 | 19 |  | 
21 | Cc1c(NC(=O)Cc2cccs2)ccc2[nH]nc(/C=C/c3cccc(CN4CCN(C)CC4)c3)c12 | 1900 | 99 | 19

From ChEMBL document CHEMBL1156203, “Synthesis and evaluation of alkenyl indazoles as selective Aurora kinase inhibitors” (Bioorg Med Chem Lett, 2010)
